Experimental data taken from US20250057813A1, “APOPTOSIS RELATED PROTEIN IN THE TGF-BETA SIGNALING PATHWAY (ARTS) MIMETIC COMPOUNDS, COMPOSITIONS, METHODS AND USES THEREOF IN INDUCTION OF APOPTOSIS” (Carmel-Haifa University Economic Corporation Ltd., priority 2022, published 2025).

Tested on: WT MEFs and Sept4/ARTS KO MEFs cells
Test: Western blot of WT MEFs and Sept4/ARTS KO MEFs
Assay type: cell-based, mouse
Conditions: 20 or 40 μM, 24 hours
Experimental: Cells were lysed in whole-cell extract buffer [25 mM HEPES, pH 7.7, […], 1.5 mM MgCl2, 0.2 mM EDTA, 0.1% Triton X-100, 100 μg/ml phenylmethylsulfonyl fluoride (PMSF) and protease inhibitor cocktail (Roche, 1:100 dilution)] and placed on ice for 30 min (vortexing once after 15 min). After 30 minutes, the samples were centrifuged at 13,000×g for 10 minutes at 4° C. The supernatants containing total protein were measured for protein concentration using Bio-Rad Protein Assay Dye Reagent Concentrate Kit. 40 to […] was separated by sodium dodecyl sulfate-polyacrylamide gel electrophoresis (SDS-PAGE) (12% or 7.5%), followed by transfer to a nitrocellulose membrane. The membranes were blocked with 5% (w/v) non-fat dried skimmed milk powder in PBS supplemented with 0.05% Tween-20 (PBS-T) for 1 h at RT. Next, primary antibodies were added at 4° C. overnight or for 2 h at room temperature. Membranes were then incubated with secondary antibody for 1 h at RT and washed three times for 15 min each with PBS-T. Western Bright ECL (Advansta) was added to the membrane for 30-60 s and analyzed using Image Quant LAS-4000 (GE Healthcare Life Sciences) and Image Quant LAS-4000 software (GE Healthcare Life Sciences).

SMILES: Cn1ccnc1C(=O)c1ccc(NC(=O)C(=O)N[C@H](CO)Cc2ccccc2)cc1 [B3, (S)-N1-(1-hydroxy-3-phenylpropan-2-yl)-N2-(4-(1-methyl-1H-imidazole-2-carbonyl)phenyl)oxalamide]
- XIAP levels: downregulates
- p53 levels: upregulate
